According to patent publication US20260125428A1, “SYNTHETIC TRIPLEX PEPTIDE NUCLEIC ACID-BASED INHIBITORS FOR CANCER THERAPY” (University of Connecticut, priority 2022, published 2026):

Legend:
U2932 cells [1] = assay: Cell viability (trypan blue) of U2932 cells; type: cell-based; conditions: 24 h, different doses
Procedure: (§1) FIGS. 4A-F show effect of cellular uptake of indicated PNAs. (4A) Expression levels of C-Myc oncogene in U2932 (DLBCL), Raji and Daudi cells (Burkitt's lymphoma) in comparison to the peripheral blood mononuclear cells (PBMC). (4B) Cell viability of U2932 cells after 24 h treatment with indicated PNAs at different doses. (4C) Cell viability of Raji cells after 24 h treatment with indicated PNAs at different doses. (4D) Gene expression levels of C-Myc oncogene and its downstream targets including MCL1 and EZH2 in U2932 cells after 24 h of treatment with γPNA1-NLS, γPNA2-NLS, and ScrγPNA4-NLS at 8 μM. (4E) Gene expression levels of C-Myc oncogene and its downstream targets including BCL2 and EZH2 in Raji cells after 24 h of treatment with γPNA1-NLS, γPNA2-NLS, and ScrγPNA4-NLS at 8 μM. (4F) Gene expression levels of C-Myc in U2932 cells after 24 h treatment with γPNA2-NLS and ScrγPNA4-NLS at indicated doses.

Raji cells = assay: Cell viability (trypan blue) of Raji cells; type: cell-based; conditions: 24 h, different doses
Procedure: as §1

C-Myc oncogene [2] = assay: Gene expression (RT-PCR) of C-Myc and downstream targets in U2932 cells; type: cell-based, human; conditions: 24 h
Procedure: as §1
(§2) Gene expression: The levels of mRNA were measured in different cell lines using real time-polymerase chain reaction (RT-PCR). Both untreated (PBMC, U2932, Raji, Daudi) and PNA treated lymphoma cells were collected at the end of treatment. Total RNA was extracted using Qiagen RNeasy® kit (USA) and concentration was measured by Nanodrop™. cDNA was synthesized using high capacity cDNA reverse transcription kit (Applied Biosystem, USA) following the recommended cycling conditions. Taqman® gene expression assay for C-Myc, EZH2, BCL2, MCL1 and GAPDH were used to amplify the respective mRNAs using the specified cycling conditions in the CFX Real-Time PCR detection system. GAPDH was used as the reference gene and fold change in mRNA expression was obtained by normalizing against the untreated cells or cells treated with HDAC inhibitors.

C-Myc oncogene [3] = assay: Gene expression (RT-PCR) of C-Myc and downstream targets in Raji cells; type: cell-based, human; conditions: 24 h, 8 μM
Procedure: as §1, §2

U2932 derived xenografts = assay: Tumor growth and survival study in U2932 derived xenograft mice; type: in vivo; conditions: 5 mg/kg systemic on day 1, 4, 7, and 10; for survival of the mice: saline 21 days
Procedure: FIGS. 7A-C show survival data of mice after systemic administration of indicated PNAs. (7A) Graph representing the tumor volume of U2932 xenografts after systemic treatment with indicated PNAs (n≥4 mice per group). PNAs were administered systemically on day 1, 4, 7, and 10 (n≥4 mice per group). (7B) The survival of U2932 derived xenograft mice after treatment with γPNA2-NLS, γPNA3, and ScrγPNA4-NLS at 5 mg/kg dose in comparison to the control (saline) mice. (7C) Complete blood count analysis of mice from different groups at the end of the study. RBC: red blood cells; WBC: white blood cells; HGB: hemoglobin; PLT: platelets; HCT: hematocrit; MCH: […]. (D) Blood chemistry analysis of mice from different groups at the end of the study. ALT: alanine transaminase; AST: aspartate transaminase; BUN: blood urea nitrogen; LDH: Lactate dehydrogenase. Results are presented as mean±SEM (n≥4).
In vivo studies in xenograft mice model: U2932 derived xenografts were generated by implanting 10 million cells subcutaneously on the lower right flank of the female NSG mice (NOD.Cg-Prkdc^scidIl2rg^tm1Wj1/SzJ, #005557, Jackson Laboratories, USA) of 5-6 weeks. The mice were maintained in the animal care facility at the University of Connecticut following the required Institutional Animal Care and Use Committee guidelines (IACUC). Mice developed palpable tumors after 3-4 weeks of implantation. Tumor dimensions including length (l), breadth (b), and height (h) were measured using a caliper and volume was calculated using the formula for ellipsoid (0.5236×lbh).
Survival study: Mice bearing tumors about 100-150 mm^3 were divided into 4 groups. Mice were treated with either γPNA2-NLS, γPNA3, Scr-γPNA4-NLS, or saline. PNAs were administered at 5 mg/kg dose on day 1, 4, 7, and 10. The change in tumor volume was measured every day. Mice were euthanized when the tumor volume reached 2000 mm^3. Blood was collected via cardiac punter in 1.5 ml tubes containing 0.5 M EDTA. Organs including tumor, liver, kidney, spleen, heart and lung were collected. Tumor fraction and all organs were kept in 10% formalin and submitted for histology. The complete blood count analysis was performed on the collected blood samples using Sysmex CBC analyzer. Plasma was separated from the blood samples and submitted to Antech diagnostic for blood chemistry analysis to quantify the levels of alanine transaminase, lactate dehydrogenase, aspartate transaminase and blood urea nitrogen.

U2932 cells [4] = assay: Viability of U2932 cells, combination of PNAs with HDAC inhibitors and other drugs
Procedure: FIGS. 9A-D show cell viability after treatment with indicated PNAs. (9A) The viability of U2932 cells after treatment with γPNA1-NLS (8 μM), romidepsin (10 nM) and combination of γPNA1-NLS with romidepsin over 96 hours. (9B) The viability of U2932 cells after treatment with γPNA2-NLS (8 μM), romidepsin (10 nM) and combination of γPNA2-NLS with romidepsin over 96 hours. (9C) Fold change in C-Myc levels after combination of γPNA1-NLS and γPNA2-NLS with romidepsin in comparison to only romidepsin treatment. (9D) Fold change in BCL2 levels after combination of γPNA1-NLS and γPNA2-NLS with romidepsin in comparison to only romidepsin treatment.
FIGS. 10A-F show the viability of U2932 cells after indicated treatment. (10A) Viability of U2932 cells after treatment with γPNA2-NLS […], vorinostat (2.5 μM) and combination of γPNA2-NLS with vorinostat over 96 hours. (10B) The viability of U2932 cells after treatment with γPNA2-NLS (8 μM), valproic acid (2 mM) and combination of γPNA2-NLS with valproic acid over 96 hours. […] (10E) The viability of U2932 cells after treatment with CHOP (cyclophosphamide, vincristine, doxorubicin, prednisone) and combination of γPNA2-NLS with CHOP at different doses.
Cell viability: U2932 and Raji cells were seeded in 96 well plates at 20,000 cells/well. PNAs were added to the media at different concentrations (1, 2, 4, and 8 μM). […] The cell viability was then measured via trypan blue staining on day 1, 2, and 4.

C-Myc oncogene [5] = assay: Gene expression (RT-PCR) in U2932 cells after combination treatment; type: cell-based, human
Procedure: as §2

## JJJTJJJT-OOO-TCCCTCCCTCCGTTCTTTTTCCC-K-OOO-VKRKKKP (gamma PNA tail clamp; linkers; NLS peptide; gammaPNA to target C-Myc Exon 1; misc_feature 1 JJJTJJJT-linker- is covalently linked to the backbone, wherein J is pseudoisocytosine and the linker is 11-Amino-3,6,9-Trioxaundecanoic Acid (DCHA), represented as -OOO-; misc_feature 23 -K-linker-SEQ ID NO: 5 is covalently linked to the backbone, wherein the linker is 11-Amino-3,6,9-Trioxaundecanoic Acid (DCHA), represented as -OOO-; modified_base 1) [γPNA2-NLS]
U2932 cells [1]
  viability of U2932 cells: significant decrease in the viability
Raji cells
  viability of Raji cells: significant decrease in the viability
C-Myc oncogene [2]; different doses
  dose of maximum knockdown of C-Myc: 8 µM
C-Myc oncogene [2]; RT-PCR, 8 μM
  decrease in the levels of C-Myc: > 50%
  levels of downstream targets MCL1 and EZH2: significant decrease in the levels of MCL1 and EZH2
C-Myc oncogene [3]
  decrease in the levels of C-Myc: > 50%
  levels of downstream targets BCL2 and EZH2: downregulation of BCL2 and EZH2
U2932 derived xenografts
  efficacy on tumor growth in comparison to γPNA3: superior efficacy
  tumor growth in comparison to the control groups: significantly reduced tumor growth
  survival of the mice: 29 days
U2932 cells [4]; U2932 cells, over time
  viability, combination with venetoclax: significant reduction in viability
U2932 cells [4]; U2932 cells, romidepsin 10 nM, PNA 8 uM
  combination effect with romidepsin on viability (in words): synergistic activity
U2932 cells [4]; U2932 cells, trypan blue, 24 h and 48 h
  viability, combination with CHOP: significant reduction in viability
U2932 cells [4]; U2932 cells, valproic acid 2 mM, PNA 8 μM, over 96 hours
  viability, combination with valproic acid in comparison to the individual treatments: significant decrease in viability
U2932 cells [4]; U2932 cells, vorinostat 2.5 μM, over 96 hours
  combination effect with vorinostat on viability: synergistic activity
U2932 cells [4]; romidepsin 10 nM pretreatment 24 h, PNA 8 uM, day 4
  decrease in U2932 cell viability, combination with romidepsin: approximately 80%
C-Myc oncogene [5]; 96 h, valproic acid 2 mM
  knockdown of c-myc, combination with valproic acid: higher knockdown of c-myc
C-Myc oncogene [5]; 96 h, vorinostat 2.5 uM, PNA 8 μM
  knockdown of c-myc, combination with vorinostat: higher knockdown of c-myc
C-Myc oncogene [5]; day 4
  BCL-2 levels, combination with romidepsin in comparison to only romidepsin: reduced levels
C-Myc oncogene [5]; day 4, PNA 8 uM, romidepsin 10 nM
  decrease in C-Myc levels, combination with romidepsin compared with only romidepsin: > 90%

## X5CCTCCCTTCTTCCTTCTCCCTTGX2 (gamma PNA; NLS peptide; scramble gammaPNA; misc_feature 1 TJJJJJJTJ-linker- is covalently linked to the backbone, wherein J is pseudoisocytosine and the linker is 11-Amino-3,6,9-Trioxaundecanoic Acid (DCHA), represented as -OOO-; misc_feature 23 -K-linker-SEQ ID NO: 5 is covalently linked to the backbone, wherein the linker is 11-Amino-3,6,9-Trioxaundecanoic Acid (DCHA), represented as -OOO-; modified_base 1..23 OTHER; p) [ScrγPNA4-NLS, reference compound]
U2932 cells [1]
  viability of U2932 cells: no impact on the viability
Raji cells
  viability of Raji cells: no impact on the viability
C-Myc oncogene [2]; different doses
  knockdown of C-Myc at different doses (in words): no activity
C-Myc oncogene [2]; RT-PCR, 8 μM
  levels of downstream targets MCL1 and EZH2: no change in their levels
C-Myc oncogene [3]
  levels of downstream targets BCL2 and EZH2: no change in their levels
U2932 derived xenografts
  survival of the mice: 19.5 days
